The source of these data is ChEMBL document CHEMBL4825697, “Optimization and SAR research at the piperazine and phenyl rings of JNJ4796 as new anti-influenza A virus agents, part 1” (Eur J Med Chem, 2021).

For one series, the system named is Influenza A virus. The series is described as follows: Antiviral activity against Influenza A virus (H1N1) infected in dog MDCK cells assessed as inhibition of surface glycoprotein hemagglutinin. In kind it is functional, organism-based.
Series [1] in a line: Cytotoxicity against dog MDCK cells assessed as reduction in cell viability. In kind it is cell-based, Canis lupus familiaris.
Series [2] can be described thus: Selectivity index, ratio of CC50 for cytotoxicity against dog MDCK cells to IC50 for antiviral activity against Influenza A virus […] infected in dog MDCK cells. In kind it is toxicity, cell-based. The following applies: read-out: Selectivity Index.
Series [3] is described as follows: Cmax in Balb/c mouse at 25 mg/kg, po administered as single dose. In kind it is ADME, organism-based. The arrangement: route oral, dose 25 mg/kg. The following applies: in vivo.
Series [4] is described as follows: AUC (0 to infinity) in Balb/c mouse at 25 mg/kg, po administered as single dose. In kind it is ADME, organism-based. Set-up: time infinity, route oral, dose 25 mg/kg. The following applies: in vivo.
The nature of series [5]: Tmax in Balb/c mouse at 25 mg/kg, po administered as single dose. In kind it is ADME, organism-based. The following applies: in vivo.
For a further series, the target named is hERG (KCNH2) (Homo sapiens, UniProt Q12809). Nature of the series: Inhibition of human ERG at 10 uM.
A short description of series [6]: Half life in Balb/c mouse at 25 mg/kg, po administered as single dose. The class given is ADME, organism-based. The following applies: in vivo.

Structures are written as SMILES.

Sequence of hERG (KCNH2) (Q12809 whole entry): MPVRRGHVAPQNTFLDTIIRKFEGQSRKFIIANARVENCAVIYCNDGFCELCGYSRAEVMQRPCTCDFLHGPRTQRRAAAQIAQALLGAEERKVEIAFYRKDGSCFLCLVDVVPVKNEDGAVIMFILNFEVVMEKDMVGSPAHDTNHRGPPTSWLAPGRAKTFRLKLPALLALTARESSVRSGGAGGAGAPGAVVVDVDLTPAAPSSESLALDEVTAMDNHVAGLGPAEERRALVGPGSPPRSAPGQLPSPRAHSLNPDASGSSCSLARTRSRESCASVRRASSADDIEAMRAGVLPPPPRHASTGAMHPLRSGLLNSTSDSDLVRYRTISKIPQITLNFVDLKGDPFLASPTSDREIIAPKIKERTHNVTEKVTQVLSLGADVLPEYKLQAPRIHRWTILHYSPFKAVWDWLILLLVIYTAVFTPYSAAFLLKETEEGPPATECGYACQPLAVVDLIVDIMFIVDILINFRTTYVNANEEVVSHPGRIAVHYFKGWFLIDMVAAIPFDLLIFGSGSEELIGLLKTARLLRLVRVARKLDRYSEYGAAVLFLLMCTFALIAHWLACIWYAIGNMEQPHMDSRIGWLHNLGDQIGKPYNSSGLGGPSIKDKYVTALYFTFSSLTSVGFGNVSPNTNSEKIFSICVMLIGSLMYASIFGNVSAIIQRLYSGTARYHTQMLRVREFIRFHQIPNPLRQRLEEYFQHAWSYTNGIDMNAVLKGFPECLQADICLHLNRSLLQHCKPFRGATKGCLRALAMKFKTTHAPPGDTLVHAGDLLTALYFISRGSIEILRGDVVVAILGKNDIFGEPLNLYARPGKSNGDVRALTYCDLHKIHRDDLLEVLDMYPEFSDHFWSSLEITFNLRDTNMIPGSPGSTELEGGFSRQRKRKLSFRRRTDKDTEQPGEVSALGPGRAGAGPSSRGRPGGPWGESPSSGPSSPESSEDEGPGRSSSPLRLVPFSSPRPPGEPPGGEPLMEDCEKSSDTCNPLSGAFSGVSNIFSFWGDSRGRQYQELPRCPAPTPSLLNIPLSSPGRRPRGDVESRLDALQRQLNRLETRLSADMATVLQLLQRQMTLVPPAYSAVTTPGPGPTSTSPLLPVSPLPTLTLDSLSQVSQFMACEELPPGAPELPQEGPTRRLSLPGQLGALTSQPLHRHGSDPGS

Take `CC(=O)Nc1ccc2oc(-c3ccnc(C(=O)N4CCN(C(c5ccc(Cl)cc5)c5nnn(C)n5)CC4)c3)nc2c1` (stereo not drawn): the IC50 (commonly the concentration that gives 50% inhibition) with Influenza A virus worked out at 1.71 µM. Also, the cytotoxic concentration (CC50) (usually the concentration giving 50% cytotoxicity) in series [1] is over 50 µM.

Take `CC(=O)Nc1ccc2oc(-c3ccnc(C(=O)N4CCN(C(c5ccc(Br)cc5)c5nnn(C)n5)CC4)c3)nc2c1` (stereo not drawn): in the series with Influenza A virus, the IC50 was determined as 1.43 µM. The 50% cytotoxic concentration (CC50) in series [1] is over 50 µM.

Consider `CC(=O)Nc1ccc2oc(-c3ccnc(C(=O)N4CCN([C@@H](c5ccccc5)c5nnn(C)n5)CC4)c3)nc2c1`, for which the IC50 in the series with Influenza A virus was 1.9 µM. Moreover, in series [2], the selectivity ratio is over 105. In addition, the CC50 in series [1] is over 200 µM.

Take `CC(=O)Nc1ccc2oc(-c3ccnc(C(=O)N4CCN([C@H](c5ccccc5)c5nnn(C)n5)CC4)c3)nc2c1`: the IC50 in the series on Influenza A virus turned out to be 0.04 µM. In series [2], the selectivity ratio came out at 3590. Moreover, in series [1], the 50% cytotoxic concentration (CC50) stood at 144 µM.

As for `CC(=O)Nc1ccc2oc(-c3ccnc(C(=O)N4CCN(C(c5cccc(F)c5)c5nnn(C)n5)CC4)c3)nc2c1` (stereo not drawn), the half-inhibitory concentration (IC50) in the series with Influenza A virus was 2.47 µM. Moreover, the CC50 in series [1] was over 50 µM.

On to `CC(=O)Nc1ccc2oc(-c3ccnc(C(=O)N4CCC5(CC4)CN(C(c4ccccc4)c4nnn(C)n4)C5)c3)nc2c1` (stereo not drawn), for which, in the series with Influenza A virus, the IC50 is over 50 µM. In addition, in series [1], the CC50 was over 50 µM.

As for `CC(=O)Nc1ccc2oc(-c3ccnc(C(=O)N4CCN(C(c5ccc([N+](=O)[O-])cc5)c5nnn(C)n5)CC4)c3)nc2c1` (stereo not drawn), in the series with Influenza A virus, the IC50 worked out at 7.41 µM. Also, the CC50 in series [1] was over 50 µM.

On to `CC(=O)Nc1ccc2oc(-c3ccnc(C(=O)N4CCN([C@H](c5ccc(F)cc5)c5nnn(C)n5)CC4)c3)nc2c1`, for which the Cmax – broadly, the peak of the concentration-time curve – in series [3] amounted to 866 ng/mL. Also, the AUC(0-inf) – broadly, the area under the concentration-time curve extrapolated to infinity – in series [4] was found to be 1910 ng·h/mL. Also, the Tmax (usually the time at which the peak concentration occurs) in series [5] was 0.33 h. In the series on Influenza A virus, the IC50 amounted to 0.03 µM. On hERG (KCNH2), the inhibition (as a rule, the share of the control response that was lost under treatment) at 10 µM stood at 13.2%. In addition, the selectivity ratio in series [2] was over 6670. In series [6], the half-life (usually the time needed for the level to fall by half in the phase considered) is 5.84 h. Moreover, the CC50 in series [1] is over 200 µM.

For the molecule `CC(=O)Nc1ccc2oc(-c3ccnc(C(=O)N4CCN(C(c5ccc(C)cc5)c5nnn(C)n5)CC4)c3)nc2c1` (stereo not drawn), the IC50 in the series on Influenza A virus was determined as 4.28 µM. For the same molecule, the CC50 in series [1] is over 50 µM.

As to `CC(=O)Nc1ccc2oc(-c3ccnc(C(=O)N4CC5CC4CN5C(c4ccccc4)c4nnn(C)n4)c3)nc2c1` (stereo not drawn), in the series with Influenza A virus, the IC50 worked out at 18.5 µM. Moreover, the 50% cytotoxic concentration (CC50) in series [1] is over 50 µM.

For `CC(=O)Nc1ccc2oc(-c3ccnc(C(=O)N4CCN([C@@H](c5ccc(F)cc5)c5nnn(C)n5)CC4)c3)nc2c1`, the IC50 with Influenza A virus turned out to be 5.51 µM. Further, in series [2], the selectivity ratio is over 36. In addition, the CC50 in series [1] is over 200 µM.

Turning to `CC(=O)Nc1ccc2oc(-c3ccnc(C(=O)N4CCN(C(c5ccc(C(F)(F)F)cc5)c5nnn(C)n5)CC4)c3)nc2c1` (stereo not drawn), the IC50 with Influenza A virus was 12.8 µM. In addition, the CC50 in series [1] was over 50 µM.

As to `CC(=O)Nc1ccc2oc(-c3ccnc(C(=O)N4CCN(C(c5ccc(F)cc5)c5nnn(C)n5)CC4)c3)nc2c1` (stereo not drawn), the concentration for half-maximal inhibition (IC50) with Influenza A virus was 0.27 µM. Besides, in series [1], the CC50 is over 50 µM.

On to `COc1ccc(C(c2nnn(C)n2)N2CCN(C(=O)c3cc(-c4nc5cc(NC(C)=O)ccc5o4)ccn3)CC2)cc1` (stereo not drawn), for which the IC50 with Influenza A virus turned out to be 12 µM. In addition, the CC50 in series [1] was over 50 µM.

`CC(=O)Nc1ccc2oc(-c3ccnc(C(=O)N4CC5(CCN(C(c6ccccc6)c6nnn(C)n6)CC5)C4)c3)nc2c1` (stereo not drawn): the 50% inhibitory concentration (IC50) in the series with Influenza A virus came to 7.41 µM. In addition, the CC50 in series [1] amounted to 32 µM.

For the molecule `CC(=O)Nc1ccc2oc(-c3ccnc(C(=O)N4CCN(C(c5nnn(C)n5)c5ccccc5F)CC4)c3)nc2c1` (stereo not drawn), the half-maximal inhibitory concentration (IC50) in the series with Influenza A virus was 7.41 µM. Also, the CC50 in series [1] was over 50 µM.

Regarding `CC(=O)Nc1ccc2oc(-c3ccnc(C(=O)N4CCN(C(c5ccc(OC(F)(F)F)cc5)c5nnn(C)n5)CC4)c3)nc2c1` (stereo not drawn), in the series with Influenza A virus, the half-inhibitory concentration (IC50) was found to be 3.18 µM. The CC50 in series [1] is over 50 µM.

`CC(=O)Nc1ccc2oc(-c3ccnc(C(=O)N4CCC5(CC4)CCN(C(c4ccccc4)c4nnn(C)n4)CC5)c3)nc2c1` (stereo not drawn): the IC50 in the series with Influenza A virus is over 50 µM. In addition, in series [1], the CC50 was over 50 µM.

In series [3], `CC(=O)Nc1ccc2oc(-c3ccnc(C(=O)N4CCN(C(c5ccccc5)c5nnn(C)n5)CC4)c3)nc2c1` (racemic) had a Cmax of 572 ng/mL. The molecule also gave a total exposure AUC(0-inf) in series [4] of 1210 ng·h/mL. In addition, the Tmax in series [5] came to 0.25 h. Also, in the series with Influenza A virus, the IC50 is 0.35 µM. The same molecule returned an inhibition at 10 µM against hERG (KCNH2) of 53.8%. Further, the half-life in series [6] was 3.69 h. Also, in series [1], the CC50 was over 50 µM.

With `CCOC(=O)C1=C[C@@H](OC(CC)CC)[C@H](NC(C)=O)[C@@H](N)C1` [OSELTAMIVIR], the 50% inhibitory concentration (IC50) in the series on Influenza A virus worked out at 3.44 µM. Also, the selectivity ratio in series [2] is over 58. For the same molecule, in series [1], the half-maximal cytotoxic concentration (CC50) is over 200 µM.

As to `NC(=O)c1ncn([C@@H]2O[C@H](CO)[C@@H](O)[C@H]2O)n1` [RIBAVIRIN], in the series on Influenza A virus, the IC50 turned out to be 4.28 µM. Besides, in series [2], the selectivity ratio is over 46. Besides, the CC50 in series [1] is over 200 µM.
